Data published in patent US9328386B2, “Markers for susceptibility to an inhibitor of an Src-family kinase” (Evotec (München) GmbH, priority 2011, dated 2016).
Like-named read-outs stand apart in the source and are kept apart here.

Columns and labels:
Assay in all cases: Cellular growth inhibition (CellTiter Glo viability assay)
Format in all cases: cell-based
H1395 NSCLC cell line = settings: Homo sapiens
HCC4006 NSCLC cell line = settings: Homo sapiens
H2077 NSCLC cell line = settings: Homo sapiens
H157 NSCLC cell line = settings: Homo sapiens
HCC2279 NSCLC cell line = settings: Homo sapiens
HCC78 NSCLC cell line = settings: Homo sapiens
H322M NSCLC cell line = settings: Homo sapiens, NCI-H322M
H2009 NSCLC cell line = settings: Homo sapiens
H1648 NSCLC cell line = settings: Homo sapiens
HCC366 NSCLC cell line = settings: Homo sapiens
H1666 NSCLC cell line = settings: Homo sapiens
LouNH91 NSCLC cell line = settings: Homo sapiens
H2172 NSCLC cell line = settings: Homo sapiens
PC9 NSCLC cell line = settings: Homo sapiens
H520 NSCLC cell line = settings: Homo sapiens
Calu6 NSCLC cell line = settings: Homo sapiens
H460 NSCLC cell line = settings: Homo sapiens
H2030 NSCLC cell line = settings: Homo sapiens
[1] = 96 h, read-out: GI50 this paper

SMILES: Cc1nc(Nc2ncc(C(=O)Nc3c(C)cccc3Cl)s2)cc(N2CCN(CCO)CC2)n1 [dasatinib, N-(2-chloro-6-methylphenyl)-2-[[6-[4-(2-hydroxyethyl)piperazin-1-yl]-2-methylpyrimidin-4-yl]amino]-1,3-thiazole-5-carboxamide]
- GI50 (H1395 NSCLC cell line; NCI-H1395, 96 h, read-out: GI50 this paper): 4700 nM
- IC50 (H1395 NSCLC cell line; NCI-H1395, read-out: Sensitivity Dasatinib): > 1000 nM
- GI50 (H1395 NSCLC cell line; NCI-H1395, H1395, 96 hours of treatment, read-out: GI50): 4700 nM
- GI50 (HCC4006 NSCLC cell line; HCC4006, 96 h, read-out: GI50 this paper): 950 nM
- IC50 (HCC4006 NSCLC cell line; HCC4006, read-out: Sensitivity Dasatinib): < 1000 nM
- GI50 (HCC4006 NSCLC cell line; HCC4006, 96 hours of treatment, read-out: GI50): 950 nM
- GI50 (H2077 NSCLC cell line; [1]): 4750 nM
- IC50 (H2077 NSCLC cell line; read-out: Sensitivity Dasatinib, H2077): > 1000 nM
- GI50 (H2077 NSCLC cell line; H2077, 96 hours of treatment, read-out: GI50): 4750 nM
- GI50 (H157 NSCLC cell line; NCI-H157, 96 h, read-out: GI50 this paper): 2630 nM
- IC50 (H157 NSCLC cell line; NCI-H157, read-out: Sensitivity Dasatinib): > 1000 nM
- GI50 (H157 NSCLC cell line; NCI-H157, H157, 96 hours of treatment, read-out: GI50): 2630 nM
- GI50 (HCC2279 NSCLC cell line; [1]): 45 nM
- IC50 (HCC2279 NSCLC cell line; read-out: Sensitivity Dasatinib, HCC2279): < 1000 nM
- GI50 (HCC2279 NSCLC cell line; HCC2279, 96 hours of treatment, read-out: GI50): 45 nM
- GI50 (HCC78 NSCLC cell line; HCC78, 96 h, read-out: GI50 this paper): 17000 nM
- IC50 (HCC78 NSCLC cell line; HCC78, read-out: Sensitivity Dasatinib): > 1000 nM
- GI50 (HCC78 NSCLC cell line; HCC78, 96 hours of treatment, read-out: GI50): 17000 nM
- GI50 (H322M NSCLC cell line; [1]): 311 nM
- IC50 (H322M NSCLC cell line; read-out: Sensitivity Dasatinib): < 1000 nM
- GI50 (H322M NSCLC cell line; H322M, 96 hours of treatment, read-out: GI50): 311 nM
- GI50 (H2009 NSCLC cell line; NCI-H2009, 96 h, read-out: GI50 this paper): 85 nM
- IC50 (H2009 NSCLC cell line; NCI-H2009, read-out: Sensitivity Dasatinib): < 1000 nM
- GI50 (H2009 NSCLC cell line; NCI-H2009, H2009, 96 hours of treatment, read-out: GI50): 85 nM
- GI50 (H1648 NSCLC cell line; NCI-H1648, 96 h, read-out: GI50 this paper): 79 nM
- IC50 (H1648 NSCLC cell line; NCI-H1648, read-out: Sensitivity Dasatinib): < 1000 nM
- GI50 (H1648 NSCLC cell line; NCI-H1648, H1648, 96 hours of treatment, read-out: GI50): 79 nM
- GI50 (HCC366 NSCLC cell line; HCC366, 96 h, read-out: GI50 this paper): 17 nM
- IC50 (HCC366 NSCLC cell line; HCC366, read-out: Sensitivity Dasatinib): < 1000 nM
- GI50 (HCC366 NSCLC cell line; HCC366, 96 hours of treatment, read-out: GI50): 17 nM
- GI50 (H1666 NSCLC cell line; NCI-H1666, 96 h, read-out: GI50 this paper): 76 nM
- IC50 (H1666 NSCLC cell line; NCI-H1666, read-out: Sensitivity Dasatinib): < 1000 nM
- GI50 (H1666 NSCLC cell line; NCI-H1666, H1666, 96 hours of treatment, read-out: GI50): 76 nM
- GI50 (LouNH91 NSCLC cell line; LOU-NH91, 96 h, read-out: GI50 this paper): 68 nM
- IC50 (LouNH91 NSCLC cell line; LOU-NH91, read-out: Sensitivity Dasatinib, LouNH91): < 1000 nM
- GI50 (LouNH91 NSCLC cell line; LOU-NH91, LouNH91, 96 hours of treatment, read-out: GI50): 68 nM
- GI50 (H2172 NSCLC cell line; NCI-H2172, 96 h, read-out: GI50 this paper): 5850 nM
- IC50 (H2172 NSCLC cell line; NCI-H2172, read-out: Sensitivity Dasatinib): > 1000 nM
- GI50 (H2172 NSCLC cell line; NCI-H2172, H2172, 96 hours of treatment, read-out: GI50): 5850 nM
- GI50 (PC9 NSCLC cell line; [1]): 20 nM
- IC50 (PC9 NSCLC cell line; PC-9, read-out: Sensitivity Dasatinib, PC9): < 1000 nM
- GI50 (PC9 NSCLC cell line; PC9, 96 hours of treatment, read-out: GI50): 20 nM
- GI50 (H520 NSCLC cell line; NCI-H520, 96 h, read-out: GI50 this paper): 1430 nM
- IC50 (H520 NSCLC cell line; NCI-H520, read-out: Sensitivity Dasatinib): > 1000 nM
- GI50 (H520 NSCLC cell line; NCI-H520, H520, 96 hours of treatment, read-out: GI50): 1430 nM
- GI50 (Calu6 NSCLC cell line; Calu-6, 96 h, read-out: GI50 this paper): 2800 nM
- IC50 (Calu6 NSCLC cell line; Calu-6, read-out: Sensitivity Dasatinib): > 1000 nM
- GI50 (Calu6 NSCLC cell line; Calu-6, 96 hours of treatment, read-out: GI50): 2800 nM
- GI50 (H460 NSCLC cell line; NCI-H460, 96 h, read-out: GI50 this paper): 3900 nM
- IC50 (H460 NSCLC cell line; NCI-H460, read-out: Sensitivity Dasatinib): > 1000 nM
- GI50 (H460 NSCLC cell line; NCI-H460, H460, 96 hours of treatment, read-out: GI50): 3900 nM
- GI50 (H2030 NSCLC cell line; NCI-H2030, 96 h, read-out: GI50 this paper): 22 nM
- IC50 (H2030 NSCLC cell line; NCI-H2030, read-out: Sensitivity Dasatinib): < 1000 nM
- GI50 (H2030 NSCLC cell line; NCI-H2030, H2030, 96 hours of treatment, read-out: GI50): 22 nM
